The source of these data is patent US11492385B2, “Long-acting co-agonists of the glucagon and GLP-1 receptors” (Merck Sharp & Dohme Corp., priority 2015, dated 2022).

The target of one assay is T1, human GCGR (Homo sapiens, UniProt P47871).
T1 construct: expressed in transfected cells; kept under Blasticidin and Hygromycin selection
Briefly: cAMP activity assay, cells expressing human GCGR. The assay is classed as cell-based. As to conditions: for EC50: cAMP production, cells expressing human GCGR, assay buffer with or without 20% human serum (not stated which), read-out: GCGR EC50 human; for hGCGR/hGLP1R (hTone): ratio of human GCGR EC50 to human GLP1R EC50. The method, boiled down: (§1)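 Peptides as 10-point titrations from DMSO tested on cells expressing human GLP1R or GCGR. cAMP measured by luminescent kit after overnight room-temperature incubation in the dark. EC50 from four-parameter logistic fit; native GLP-1 and glucagon as controls.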

In the next assay the target is T2, human GLP1R (Homo sapiens, UniProt P43220).
T2 construct: expressed in transfected cells; kept under Blasticidin and Hygromycin selection
Briefly: cAMP activity assay, cells expressing human GLP1R. The assay is classed as cell-based. As to conditions: cAMP production, assay buffer with or without 20% human serum (not stated which). The gist of the method:
as §1

Molecules are shown by their SMILES. Starred links: 1 amine or outer side, 2 acyl side, 3 side chain; linkers in the order of their positions; H or OH if unused. Non-standard residues stand in square brackets, D forms with d. Residues, ends and D or L forms follow the SMILES beside them. Groups on a side chain read outwards from the residue. *: point of attachment. Phe(4-CH2NH2) = NCc1ccc(C[C@H](N)C(=O)O)cc1; C18 diacid = O=C(O)CCCCCCCCCCCCCCCCC(=O)*; C16 diacid = O=C(O)CCCCCCCCCCCCCCC(=O)*; γGlu = O=C(O)[C@H](CCC(=O)[*:2])N[*:1]; X1 = O=C([C@H]1CCC[C@@H]1N[*:1])[*:2]; Met(O2) = CS(=O)(=O)CC[C@H](N)C(=O)O; AEEA = NCCOCCOCC(=O)O; Aib = CC(C)(N)C(=O)O

T1 sequence (P47871 26-477): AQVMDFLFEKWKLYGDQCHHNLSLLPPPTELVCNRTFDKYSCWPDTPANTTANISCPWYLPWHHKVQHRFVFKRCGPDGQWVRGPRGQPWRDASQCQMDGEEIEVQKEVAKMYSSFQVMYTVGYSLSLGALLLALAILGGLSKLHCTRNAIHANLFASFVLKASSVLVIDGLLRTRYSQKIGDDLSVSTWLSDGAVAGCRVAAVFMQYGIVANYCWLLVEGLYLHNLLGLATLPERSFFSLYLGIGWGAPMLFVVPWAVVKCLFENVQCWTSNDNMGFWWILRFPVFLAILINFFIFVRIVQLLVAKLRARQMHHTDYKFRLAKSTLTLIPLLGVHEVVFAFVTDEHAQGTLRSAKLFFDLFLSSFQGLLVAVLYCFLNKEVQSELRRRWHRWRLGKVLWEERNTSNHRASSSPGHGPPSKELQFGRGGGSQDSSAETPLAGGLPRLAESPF
T2 sequence (P43220 24-463): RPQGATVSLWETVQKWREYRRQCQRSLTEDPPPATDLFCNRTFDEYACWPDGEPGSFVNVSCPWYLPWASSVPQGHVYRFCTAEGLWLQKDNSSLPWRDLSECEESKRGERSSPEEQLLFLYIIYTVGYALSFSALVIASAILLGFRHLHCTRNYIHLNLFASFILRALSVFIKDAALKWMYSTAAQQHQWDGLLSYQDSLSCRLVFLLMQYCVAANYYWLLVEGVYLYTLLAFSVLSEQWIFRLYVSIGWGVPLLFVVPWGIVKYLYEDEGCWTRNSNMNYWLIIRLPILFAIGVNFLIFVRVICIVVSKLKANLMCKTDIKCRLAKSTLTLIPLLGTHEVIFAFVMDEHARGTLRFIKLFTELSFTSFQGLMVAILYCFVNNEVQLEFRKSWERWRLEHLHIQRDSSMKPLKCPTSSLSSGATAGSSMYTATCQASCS

In general, EC50 refers to the concentration needed to bring the measured effect to its halfway point. In the case of `CC(C)C[C@H](NC(=O)[C@H](Cc1ccc(O)cc1)NC(=O)[C@H](CCCCN)NC(=O)[C@H](CO)NC(=O)[C@H](Cc1ccc(O)cc1)NC(=O)[C@H](CC(=O)O)NC(=O)[C@H](CO)NC(=O)[C@@H](NC(=O)[C@H](Cc1ccccc1)NC(=O)[C@@H](NC(=O)CNC(=O)[C@H](CCC(N)=O)NC(=O)C(C)(C)NC(=O)[C@@H](N)Cc1c[nH]cn1)[C@@H](C)O)[C@@H](C)O)C(=O)N[C@@H](CC(=O)O)C(=O)N[C@@H](C)C(=O)N[C@@H](CCCNC(=N)N)C(=O)N[C@@H](C)C(=O)N[C@@H](C)C(=O)N[C@@H](CCC(N)=O)C(=O)N[C@@H](CCCCNC(=O)COCCOCCNC(=O)COCCOCCNC(=O)CC[C@H](NC(=O)CCCCCCCCCCCCCCC(=O)O)C(=O)O)C(=O)N[C@@H](Cc1ccccc1)C(=O)N[C@H](C(=O)N[C@@H](CCC(N)=O)C(=O)N[C@@H](Cc1c[nH]c2ccccc12)C(=O)N[C@@H](CC(C)C)C(=O)N[C@@H](CCS(C)(=O)=O)C(=O)N[C@@H](CC(=O)O)C(=O)N[C@H](C(N)=O)[C@@H](C)O)C(C)C` [compound 20] (H-H[Aib]QGTFTSDYSKYLDARAAQK([AEEA-AEEA-γGlu-C16 diacid])FVQWL[Met(O2)]DT-NH2), the EC50 on human GCGR and on human GLP1R was 30 pM each time. For the same compound, on human GCGR, the “hGCGR/hGLP1R (hTone)” value is given as 0.98.
With `CC(C)C[C@H](NC(=O)[C@H](Cc1ccc(O)cc1)NC(=O)[C@H](CCCCN)NC(=O)[C@H](CO)NC(=O)[C@H](Cc1ccc(O)cc1)NC(=O)[C@H](CC(=O)O)NC(=O)[C@H](CO)NC(=O)[C@@H](NC(=O)[C@H](Cc1ccccc1)NC(=O)[C@@H](NC(=O)CNC(=O)[C@H](CCC(N)=O)NC(=O)[C@@H](CO)NC(=O)[C@@H](N)Cc1c[nH]cn1)[C@@H](C)O)[C@@H](C)O)C(=O)N[C@@H](CC(=O)O)C(=O)N[C@@H](CCC(=O)O)C(=O)N[C@@H](CCCNC(=N)N)C(=O)N[C@@H](C)C(=O)N[C@@H](C)C(=O)N[C@@H](CCC(N)=O)C(=O)N[C@@H](CCCCNC(=O)COCCOCCNC(=O)COCCOCCNC(=O)CC[C@H](NC(=O)CCCCCCCCCCCCCCC(=O)O)C(=O)O)C(=O)N[C@@H](Cc1ccccc1)C(=O)N[C@H](C(=O)N[C@@H](CCC(N)=O)C(=O)N[C@@H](Cc1c[nH]c2ccccc12)C(=O)N[C@@H](CC(C)C)C(=O)N[C@@H](CCS(C)(=O)=O)C(=O)N[C@@H](CC(=O)O)C(=O)N[C@H](C(N)=O)[C@@H](C)O)C(C)C` [compound 16] (H-H[dS]QGTFTSDYSKYLDERAAQK([AEEA-AEEA-γGlu-C16 diacid])FVQWL[Met(O2)]DT-NH2), the half-maximal effective concentration (EC50) was 30 pM at human GCGR and 310 pM on human GLP1R. In addition, the “hGCGR/hGLP1R (hTone)” value at human GCGR is recorded as 0.09.
For `CC(C)C[C@H](NC(=O)[C@H](Cc1ccc(O)cc1)NC(=O)[C@H](CCCCN)NC(=O)[C@H](CO)NC(=O)[C@H](Cc1ccc(O)cc1)NC(=O)[C@H](CC(=O)O)NC(=O)[C@H](CO)NC(=O)[C@@H](NC(=O)[C@H](Cc1ccccc1)NC(=O)[C@@H](NC(=O)CNC(=O)[C@H](CCC(N)=O)NC(=O)[C@@H](CO)NC(=O)[C@@H](N)Cc1c[nH]cn1)[C@@H](C)O)[C@@H](C)O)C(=O)N[C@@H](CC(=O)O)C(=O)N[C@@H](C)C(=O)N[C@@H](CCCNC(=N)N)C(=O)N[C@@H](C)C(=O)N[C@@H](C)C(=O)N[C@@H](CCC(N)=O)C(=O)N[C@@H](Cc1ccc(CNC(=O)COCCOCCNC(=O)COCCOCCNC(=O)CC[C@H](NC(=O)CCCCCCCCCCCCCCC(=O)O)C(=O)O)cc1)C(=O)N[C@@H](Cc1ccccc1)C(=O)N[C@H](C(=O)N[C@@H](CCC(N)=O)C(=O)N[C@@H](Cc1c[nH]c2ccccc12)C(=O)N[C@@H](CC(C)C)C(=O)N[C@@H](CC(C)C)C(=O)N[C@@H](CC(=O)O)C(=O)N[C@H](C(N)=O)[C@@H](C)O)C(C)C` [compound 23] (H-H[dS]QGTFTSDYSKYLDARAAQ[Phe(4-CH2NH2)]([AEEA-AEEA-γGlu-C16 diacid])FVQWLLDT-NH2), at human GCGR, the EC50 was determined as 40 pM and the “hGCGR/hGLP1R (hTone)” value was determined as 0.14. The compound also registered an EC50 at human GLP1R of 270 pM.
Turning to `CC(C)C[C@H](NC(=O)[C@H](Cc1ccc(O)cc1)NC(=O)[C@H]1CCC[C@@H]1NC(=O)[C@H](CO)NC(=O)[C@H](Cc1ccc(O)cc1)NC(=O)[C@H](CC(=O)O)NC(=O)[C@H](CO)NC(=O)[C@@H](NC(=O)[C@H](Cc1ccccc1)NC(=O)[C@@H](NC(=O)CNC(=O)[C@H](CCC(N)=O)NC(=O)C(C)(C)NC(=O)[C@@H](N)Cc1c[nH]cn1)[C@@H](C)O)[C@@H](C)O)C(=O)N[C@@H](CC(=O)O)C(=O)NC(C)(C)C(=O)N[C@@H](CCCNC(=N)N)C(=O)N[C@@H](C)C(=O)N[C@@H](C)C(=O)N[C@@H](CCCCNC(=O)COCCOCCNC(=O)COCCOCCNC(=O)CC[C@H](NC(=O)CCCCCCCCCCCCCCCCC(=O)O)C(=O)O)C(=O)N[C@@H](CC(=O)O)C(=O)N[C@@H](Cc1ccccc1)C(=O)N[C@H](C(=O)N[C@H]1CCC[C@@H]1C(=O)N[C@@H](Cc1c[nH]c2ccccc12)C(=O)N[C@@H](CC(C)C)C(=O)N[C@@H](CCS(C)(=O)=O)C(=O)N[C@@H](CC(=O)O)C(=O)N[C@H](C(N)=O)[C@@H](C)O)C(C)C` [compound 34] (H-H[Aib]QGTFTSDYS[X1]YLD[Aib]RAAK([AEEA-AEEA-γGlu-C18 diacid])DFV[X1]WL[Met(O2)]DT-NH2; N-terminus assumed), at human GCGR, the EC50 amounted to 640 pM and the “hGCGR/hGLP1R (hTone)” value worked out at 0.53. The EC50 at human GLP1R turned out to be 1200 pM.
In the case of `CC(C)C[C@H](NC(=O)[C@H](Cc1ccc(O)cc1)NC(=O)[C@H](CCCCN)NC(=O)[C@H](CO)NC(=O)[C@H](Cc1ccc(CNC(=O)COCCOCCNC(=O)COCCOCCNC(=O)CC[C@H](NC(=O)CCCCCCCCCCCCCCC(=O)O)C(=O)O)cc1)NC(=O)[C@H](CC(=O)O)NC(=O)[C@H](CO)NC(=O)[C@@H](NC(=O)[C@H](Cc1ccccc1)NC(=O)[C@@H](NC(=O)CNC(=O)[C@H](CCC(N)=O)NC(=O)C(C)(C)NC(=O)[C@@H](N)Cc1c[nH]cn1)[C@@H](C)O)[C@@H](C)O)C(=O)N[C@@H](CC(=O)O)C(=O)N[C@@H](C)C(=O)N[C@@H](CCCNC(=N)N)C(=O)N[C@@H](C)C(=O)N[C@@H](C)C(=O)N[C@@H](CCC(N)=O)C(=O)N[C@@H](CC(=O)O)C(=O)N[C@@H](Cc1ccccc1)C(=O)N[C@H](C(=O)N[C@@H](CCC(N)=O)C(=O)N[C@@H](Cc1c[nH]c2ccccc12)C(=O)N[C@@H](CC(C)C)C(=O)N[C@@H](CCS(C)(=O)=O)C(=O)N[C@@H](CC(=O)O)C(=O)N[C@H](C(N)=O)[C@@H](C)O)C(C)C` [compound 12] (H-H[Aib]QGTFTSD[Phe(4-CH2NH2)]([AEEA-AEEA-γGlu-C16 diacid])SKYLDARAAQDFVQWL[Met(O2)]DT-NH2; N-terminus assumed), at human GCGR, the EC50 was 140 pM and the “hGCGR/hGLP1R (hTone)” value turned out to be 1.89. Besides, the EC50 at human GLP1R came to 70 pM.
